Test results published in patent US12281125B2, “Rapamycin derivatives” (NOVARTIS AG, priority 2018, dated 2025).

Assays:
FKBP12 = target: T1, FKBP12 (Homo sapiens, UniProt P62942); assay: SPR assay, binding affinity to FKBP12; settings: equilibrium dissociation constant
T1 construct: made in house; host or cells: E. coli
Source text: N-terminal avi-his6-tagged FKBP fusion proteins were expressed in E. coli and purified with nickel chromatography using standard procedures. Biotinylated his-avi-FKBPs were immobilized on a streptavidin chip using a Biacore 8K (GE Healthcare). […] The single-cycle kinetics data were fit to a 1:1 binding model to measure the association rate ka (1/Ms), the dissociation rate kd (1/s) and the affinity KD (M). […] The single-cycle kinetics data was fit to a 1:1 binding model to measure the association rate ka (1/Ms), the dissociation rate kd (1/s) and the apparent affinity KD (M) for ternary complex formation. The equilibrium dissociation constants (KD) to FKBP12, FKBP51, and FKBP52 are shown below in Table 6.

[1] = Pharmacokinetic profile in rats; assay type: in vivo; settings: male, Sprague-Dawley, blood, rat
Method: All procedures involving animals were approved by the Institutional Animal Care and Use Committee of the Novartis Institutes for Biomedical Research, Cambridge, Mass., USA. Adult Sprague Dawley (SD) male rats were purchased from Envigo (Indianapolis, USA). Once imported, rats were maintained at the specific pathogen free facilities with controlled temperature and light (22° C., 12-h light/12-h dark cycle: lights on at 0600 h/lights off at 1800 h) and with ad libitum access to food and water. Rats were acclimated for at least 3 days before experiments commenced.
Various organs were collected and frozen in liquid nitrogen. Blood was collected via a tail vein or a cardiac puncture (terminal) and frozen for further pharmacokinetics analyses. All tissues were stored at −80° C. until analyzed.
Concentrations were determined using HPLC/Mass spectrometry.
Compounds were administered to rats aged 7-9 weeks (N=3 per group) p.o. at 3 mg/kg and intravenously (i.v). at 1 mg/kg (FIGS. 3A and 3B).

[2] = test system: mTORC1 pathway (S6 phosphorylation) in rat liver; assay: Inhibition of mTORc1 pathway in rat liver (p-S6/t-S6 immunoblot); assay type: in vivo; settings: single oral dose 1, 3 and 10 mg/kg, liver at 3 hours, compared with vehicle control
Method: Rats were given a single oral dose of Compound 2 at 1, 3 or 10 mg/kg, and liver samples were collected at 3 hours following dosing. Rats treated with a vehicle were used as a control. […] GAPDH (glyceraldehyde 3-phosphate dehydrogenase) was used to control for protein loading. […] In the histogram depicted in FIG. 4B, average arbitrary values that indicate p-S6/t-S6 ratios are shown above each bar. X axis represents orally given doses (1, 3, or 10 mg/kg). Y-axis represents arbitrary units. Six rats were used in each experimental group. Data are mean±standard deviation. Data were analyzed with a one way ANOVA followed by Dunnett's multiple comparison tests, where means from all groups were compared to the vehicle treated group. […]. […]
Various organs were collected and frozen in liquid nitrogen. […] All tissues were stored at −80° C. until analyzed.
For protein extraction, snap frozen tissues were lysed in MSD Lysis Buffer (MSD, Rockville, Md.), supplemented with complete EDTA free protease inhibitor and PhosSTOP phosphatase inhibitor tablets (Roche, Manheim, Germany), and centrifuged at 13,000 g for 20 min at 4° C. […] Protein was quantified with BCA protein assay (Thermo Scientific, MA). […] Glyceraldehyde 3-phosphate dehydrogenase (GAPDH) detected with an anti-GAPDH antibody (#5174, Cell Signaling Technologies, MA) was used as a protein loading control. […]

[3] = test system: mTORc1 signaling, pS6 (Ser240/244) in MEF TSCl−/− cells; assay: Cell-based assay for rapalog potency (pS6) in MEF TSCl−/− cells; settings: Mus musculus, 2 hours treatment, average from multiple assays
Method: Rapalog potency was determined using MEF TSCl−/− cell based assay. MEF TSCl−/− cells are Mouse Embryonic Fibroblasts deficient in Tuberous sclerosis protein—TSCl, which negatively regulates mTORc1 signaling and thus display constitutive mTORc1 activation, resulting in phosphorylation (activation) of downstream molecules. This cell-based assay is used to measure inhibition (de-phosphorylation) of S6 and 4EBP1 by rapalogs or other mTOR inhibitors.
MEF TSCl−/− cells were plated on Poly-D-lysine coated 384 well Griener clear bottom plates and incubated overnight at 37° C., 5% CO2. On the following day, cells were washed 8 times with “Hard starve” solution (1 L DPBS+1 g D-(+) glucose+10 ml of 7.5% Sodium Bicarbonate+20 ml of 1M HEPES) and incubated for further 2 hours in the same solution. Cells were next treated with compounds with decreasing concentrations (8 points at 3.16 fold dilutions) and incubated for 2 hours at 37° C., 5% CO2. Cells were fixed with 4% paraformaldehyde for 30 min and washed 5 times with TBS-EDTA followed by immuno-staining with fluorescent tag labeled antibodies for pS6 (Ser240/244) (Cell Signaling #9468) and p4EBP1 (Thr 37/46) (Cell Signaling #5123). Nuclei were visualized with Hoechst (ThermoFisher Scientific #H3570) staining. Cells were imaged (InCell 600) using respective fluorescence channels and the potency of mTOR inhibitors was defined by pS6 IC50 (nM).
In vitro potency of mTOR inhibitors was defined by pS6 IC50 (nM) in MEF TSCl−/− cells.
IC50 values are calculated as the average from multiple assays.

T1 sequence (P62942 whole entry): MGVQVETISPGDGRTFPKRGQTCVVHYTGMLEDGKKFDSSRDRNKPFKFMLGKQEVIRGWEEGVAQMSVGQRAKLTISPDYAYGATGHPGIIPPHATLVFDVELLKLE

- Kd (FKBP12): 4.8 nM
- clearance ([1]; iv, i.v. 1 mg/kg): 13 mL/min/kg
- half-life ([1]; iv, i.v. 1 mg/kg, read-out: iv. terminal half-life (converted)): 19 h
- bioavailability ([1]; oral, p.o. 3 mg/kg and i.v. 1 mg/kg, solution formulation): 16%
- IC50 [3]: 0.11 nM
Structure (SMILES): CO[C@@H]1C[C@H](C[C@@H](C)[C@@H]2CC[C@H](C)/C=C(\C)[C@@H](O)[C@@H](OC)C(=O)[C@H](C)C[C@H](C)/C=C/C=C/C=C(\C)[C@@H](NS(C)(=O)=O)C[C@@H]3CC[C@@H](C)[C@@](O)(O3)C(=O)C(=O)N3CCCC[C@H]3C(=O)O2)CC[C@H]1O [Compound 2]
- de-phosphorylation (inactivation) of S6 in rat livers [2]: significant de-phosphorylation (inactivation) of S6
